The assay deals with T1, Tyrosine-protein kinase ITK/TSK [357-620,Y512E] (Human, UniProt Q08881, Y512E).
T1 construct: 357-620
T1 sequence (Q08881 357-620 Y512E): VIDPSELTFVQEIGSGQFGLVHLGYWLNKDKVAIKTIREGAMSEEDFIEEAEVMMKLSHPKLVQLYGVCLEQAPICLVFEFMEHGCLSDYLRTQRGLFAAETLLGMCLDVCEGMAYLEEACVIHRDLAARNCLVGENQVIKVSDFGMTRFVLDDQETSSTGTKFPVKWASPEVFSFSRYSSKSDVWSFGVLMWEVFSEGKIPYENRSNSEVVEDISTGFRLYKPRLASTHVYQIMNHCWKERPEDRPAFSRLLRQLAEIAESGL
The experiment in a line: LanthaScreen Kinase Binding Assay. From the text: This assay is based on the binding and displacement of Alexa-fluor 647-labeled ATP-competitive kinase inhibitor tracer 236. Binding of the tracer is detected using a europium-labeled anti-tag antibody that binds to the purified recombinant tagged Itk protein. Binding of the tracer 236 is reversible and rapid, and simultaneous binding of the tracer and antibody results in fluorescence resonance energy transfer (FRET). Displacement of the tracer upon inhibitor binding results in a decrease of FRET. The assay can be read continuously, enabling rates of binding (and displacement) to be monitored.
For orientation: TR-FRET usually uses a lanthanide donor and a delayed reading to cut background.
The term IC50 denotes the midpoint of a concentration-inhibition curve. The low end stands for inhibition by little substance, the high end for a need for much substance. For `O[C@H]1CC[C@H](Nc2nc(CN3CCOCC3)cc(Nc3nc4cccnc4s3)n2)CC1` [(trans)-4-((4-(Morpholinomethyl)-6-(thiazolo[5,4-b]pyridin-2-ylamino)pyrimidin-2-yl)amino)cyclohexanol (1)], the IC50 was found to be 100 nM. As to `C=CC(=O)N1CC[C@H](Nc2cc(CN3CCCCC3)cc(Nc3nc4cccnc4s3)n2)C1` [(S)-1-(3-((4-(Piperidin-1-ylmethyl)-6-(thiazolo[5,4-b]pyridin-2-ylamino)pyridin-2-yl)amino)pyrrolidin-1-yl)prop-2-en-1-one (10)], the IC50 is 6.3 nM. The same measure for `C=CC(=O)N1CC[C@H](Nc2cc(CN[C@H](C)C(C)(C)C)cc(Nc3nc4cccnc4s3)n2)C1` [1-((S)-3-((4-((((R)-3,3-Dimethylbutan-2-yl)amino)methyl)-6-(thiazolo[5,4-b]pyridin-2-ylamino)pyridin-2-yl)amino)pyrrolidin-1-yl)prop-2-en-1-one (13)]: 7.9 nM. Then `C=CC(=O)N1CC[C@@H](Nc2nc(CN3CCOCC3)cc(Nc3nc4cccnc4s3)n2)C1` [N2-[(3R)-1-Acryloyl-3-pyrrolidinyl]-6-(4-morpholinylmethyl)-N4-[1,3]thiazolo[5,4-b]pyridin-2-yl-2,4-pyrimidinediamine (14)], with 20000 nM; and `C=CC(=O)N[C@H]1CC[C@H](Nc2nc(CN3CCOCC3)cc(Nc3nc4cccnc4s3)n2)CC1` [N-(trans-4-{[4-(4-Morpholinylmethyl)-6-([1,3]thiazolo[5,4-b]pyridin-2-ylamino)-2-pyrimidinyl]amino}cyclohexyl)-2-propenamide (5)], with 2000 nM.

`C=CC(=O)N1CC[C@H](Nc2cc(CN(C)C)cc(Nc3nc4cccnc4s3)n2)C1` [(S)-1-(3-((4-((Dimethylamino)methyl)-6-(thiazolo[5,4-b]pyridin-2-ylamino)pyridin-2-yl)amino)pyrrolidin-1-yl)prop-2-en-1-one (11)] displayed a 50% inhibitory concentration (IC50) of 32 nM. Then `C/C=C/C(=O)N1CC[C@H](Nc2cc(CN3C[C@@H](C)O[C@@H](C)C3)cc(Nc3nc4cccnc4s3)n2)C1` [N-{(3S)-1-[(2E)-2-Butenoyl]-3-pyrrolidinyl}-4-{[cis-2,6-dimethyl-4-morpholinyl]methyl}-N'-[1,3]thiazolo[5,4-b]pyridin-2-yl-2,6-pyridinediamine (16)], with 40 nM.

`C=CC(=O)N1CC[C@H](Nc2cc(CN3C[C@@H](C)O[C@@H](C)C3)cc(Nc3nc4cccnc4s3)n2)C1` [N-[(3S)-1-Acryloyl-3-pyrrolidinyl]-4-{[cis-2,6-dimethyl-4-morpholinyl]methyl}-N'-[1,3]thiazolo[5,4-b]pyridin-2-yl-2,6-pyridinediamine (9)] came in with an IC50 of 5 nM. On to `C=CC(=O)N1CC[C@H](Nc2nc(CN3CCOCC3)cc(Nc3nc4cccnc4s3)n2)C1` [N2-[(3S)-1-Acryloyl-3-pyrrolidinyl]-6-(4-morpholinylmethyl)-N4-[1,3]thiazolo[5,4-b]pyridin-2-yl-2,4-pyrimidinediamine (7)], for which the IC50 was found to be 500 nM.

For `C=CC(=O)NCCNc1nc(CN2CCOCC2)cc(Nc2nc3cccnc3s2)n1` [N-(2-{[4-(4-Morpholinylmethyl)-6-([1,3]thiazolo[5,4-b]pyridin-2-ylamino)-2-pyrimidinyl]amino}ethyl)-2-propenamide (2)], the IC50 came out at 1300 nM. The same measure for `C=CC(=O)N1CC[C@H](Nc2cc(CN[C@@H](C)C(C)(C)C)cc(Nc3nc4cccnc4s3)n2)C1`: 5 nM; for `C=CC(=O)N[C@H]1CCCC[C@H]1Nc1nc(CN2CCOCC2)cc(Nc2nc3cccnc3s2)n1` (relative stereo) [N-(cis-2-{[4-(4-Morpholinylmethyl)-6-([1,3]thiazolo[5,4-b]pyridin-2-ylamino)-2-pyrimidinyl]amino}cyclohexyl)-2-propenamide (4)]: 320 nM; for `C=CC(=O)N[C@H]1CCC[C@@H](Nc2nc(CN3CCOCC3)cc(Nc3nc4cccnc4s3)n2)C1` (relative stereo) [N-(cis-3-{[4-(4-Morpholinylmethyl)-6-([1,3]thiazolo[5,4-b]pyridin-2-ylamino)-2-pyrimidinyl]amino}cyclohexyl)-2-propenamide (6)]: 250 nM. Then `C=CC(=O)N1CCC(Nc2nc(CN3CCOCC3)cc(Nc3nc4cccnc4s3)n2)CC1` [N2-(1-Acryloyl-4-piperidinyl)-6-(4-morpholinylmethyl)-N4-[1,3]thiazolo[5,4-b]pyridin-2-yl-2,4-pyrimidinediamine (3)], with 320 nM.

The record behind these values is BindingDB's records for doi:10.1074/jbc.M113.474114 (Glaxosmithkline, 2013).
